In publication PMC9919490, “Synthesis and Biological Evaluation of Novel Dispiro-Indolinones with Anticancer Activity” (Molecules, 2023):

Assays:
Format in all cases: cell-based
Details in all cases: 48 h
HCT^wt cells = assay: MTT cytotoxicity assay, HCT^wt (p53 pos)
Experimental: (§1) The synthesized compounds were tested for their ability to block the proliferation of the selected model cell lines: LNCaP (p53+), PC3 (p53-), HCT^wt (p53+), and HCT^−/− (p53-) cells. The assay was carried out using the standard MTT (3-(4,5-dimethylthiazol-2-yl)2,5-diphenyl tetrazolium bromide) assay based on the modified approach reported by Ferrari and colleagues. […] Differences in IC50 values against these cell lines were used to assess the selectivity of the compounds.
(§2) Model cell lines were purchased from the in stock collection of the N.N. Blokhin Russian Cancer Research Center (RAMS). Cells were accurately maintained in the recommended media, supplemented with 10% heat-inactivated FBS (Invitrogen) and 2 mmol/L L-glutamine (Invitrogen).
(§3) First, 4000 cells per well were plated out in 140 µL of DMEM (with 10% FBS) in 96-well plates and incubated in 5% CO2 for 24 h at 37 °C without treatment. […] The cells were treated for 48 h with […] (eight dilutions) concentrations of the substances (each in triplicate) or doxorubicin (0.3 nM–600 nM, eight dilutions) as a control substance. After the incubation, 15 µL of MTT solution in PBS (5 mg/mL) was added, and the cells were incubated for 2 h, followed by removal of the media and addition of 120 µL of DMSO. […] Cell survival rates were determined by the comparison of optical density with the corresponding untreated control cell culture. Dose-dependent curves and the corresponding IC50 values were calculated using “GraphPad Prism 6” software (GraphPad Software, Inc., San Diego, CA, USA).

PC3 cells = assay: MTT cytotoxicity assay, PC3 (p53 neg)
Experimental: as §1, §2, §3

LNCaP cells = assay: MTT cytotoxicity assay, LNCaP (p53 pos)
Experimental: as §1, §2, §3

HCT^−/− cells = assay: MTT cytotoxicity assay, HCT^−/− (p53 neg)
Experimental: as §1, §2, §3

| Compound | IC50 (HCT^wt cells) | IC50 (PC3 cells) | IC50 (LNCaP cells) | IC50 (HCT^−/− cells) |
| --- | --- | --- | --- | --- |
| COc1ccc(N2C(=O)[C@]3(NC2=S)[C@@H](c2cccc(Cl)c2)CN(C)[C@@]32C(=O)Nc3ccc(Br)cc32)cc1 (racemic) [Compound 33] | > 100 µM | > 100 µM | > 100 µM | > 100 µM |
| COc1ccc([C@H]2CN(C)[C@@]3(C(=O)Nc4ccc(Cl)cc43)[C@@]23NC(=S)N(c2ccc(O)cc2)C3=O)cc1OC (racemic) [Compound 57] | > 100 µM | 20 ± 6.9 µM | 17 ± 1 µM | > 100 µM |
| CN1C[C@H](c2ccncc2)[C@]2(NC(=S)N(c3ccccc3)C2=O)[C@]12C(=O)Nc1ccccc12 (racemic) [Compound 19] | > 100 µM | > 100 µM | > 100 µM | > 100 µM |
| CN1C[C@H](c2cccc(Cl)c2)[C@]2(NC(=S)N(c3ccccc3)C2=O)[C@]12C(=O)Nc1ccc(Br)cc12 (racemic) [Compound 15] | > 100 µM | > 100 µM | > 100 µM | > 100 µM |
| CCOc1ccc(N2C(=O)[C@]3(NC2=S)[C@@H](c2ccc(F)cc2)CN(C)[C@@]32C(=O)Nc3ccccc32)cc1 (racemic) [Compound 30] | > 100 µM | > 100 µM | > 100 µM | > 100 µM |
| CCOc1ccc(N2C(=O)[C@]3(NC2=S)[C@@H](c2ccc(Cl)cc2)CN(C)[C@@]32C(=O)Nc3ccccc32)cc1 (racemic) [Compound 28] | > 100 µM | > 100 µM | > 100 µM | > 100 µM |
| CN1CC(c2ccccc2Cl)C2(NC(=S)N(c3ccc(O)cc3)C2=O)C12C(=O)Nc1ccc(Br)cc12 (stereo not shown) [Compound 54, 1-(4-hydroxyphenyl)-4’-(2-chlorophenyl)-1’-methyl-5’’’-bromo-2-thiooxodispiro[imidazolidine-4,3’-pyrrolidine-2’,3”-indoline]-2”,5-dione] | > 100 µM | 20 ± 8.4 µM | 9.5 ± 2.5 µM | > 100 µM |
| CN1C[C@H](c2cccc(Cl)c2)[C@]2(NC(=S)N(c3ccccc3)C2=O)[C@]12C(=O)Nc1ccc(Cl)cc12 (racemic) [Compound 23] | 50.7 ± 8.9 µM | > 100 µM | > 100 µM | 50.7 ± 12.6 µM |
| CC(c1ccccc1)N1C(=O)C2(NC1=S)C(c1cccc(Cl)c1)CN(C)C21C(=O)Nc2ccc(Br)cc21 (mixture of isomers) [Compound 63] | 8 ± 2.5 µM | 8.8 ± 3.1 µM | 3.4 ± 1.5 µM | > 100 µM |
| CN1C[C@H](c2ccc(Cl)c(Cl)c2)[C@]2(NC(=S)N(c3ccccc3)C2=O)[C@]12C(=O)Nc1ccc(Br)cc12 (racemic) [Compound 16] | 7.6 ± 1.6 µM | > 100 µM | > 100 µM | 8.8 ± 3.5 µM |
| CC(c1ccccc1)N1C(=O)C2(NC1=S)C(c1ccccc1Cl)CN(C)C21C(=O)Nc2ccc(Cl)cc21 (mixture of isomers) [Compound 64] | 24 ± 6.7 µM | > 100 µM | > 100 µM | > 100 µM |
| COc1ccc([C@H]2CN(C)[C@@]3(C(=O)Nc4ccc(Br)cc43)[C@@]23NC(=S)N(c2ccc(O)cc2)C3=O)cc1OC (racemic) [Compound 56] | > 100 µM | 30 ± 10.5 µM | 9 ± 2 µM | > 100 µM |
| CN1C[C@H](c2ccccc2Cl)[C@]2(NC(=S)N(c3ccc(O)cc3)C2=O)[C@]12C(=O)Nc1ccccc12 (racemic) [Compound 53] | > 100 µM | > 100 µM | > 100 µM | > 100 µM |
| CCOc1ccc(N2C(=O)[C@]3(NC2=S)[C@@H](c2ccc(F)cc2)CN(C)[C@@]32C(=O)Nc3ccc(Br)cc32)cc1 (racemic) [Compound 31] | > 100 µM | > 100 µM | > 100 µM | > 100 µM |
| CN1C[C@H](c2ccc(Cl)cc2)[C@]2(NC(=S)N(c3ccc(Cl)cc3)C2=O)[C@]12C(=O)Nc1ccc(Cl)cc12 (racemic) [Compound 37] | > 100 µM | > 100 µM | > 100 µM | > 100 µM |
| CN1C[C@H](c2ccccn2)[C@]2(NC(=S)N(c3ccccc3)C2=O)[C@]12C(=O)Nc1ccc(Cl)cc12 (racemic) [Compound 18] | 60.1 ± 8.6 µM | 8.2 ± 3.5 µM | 2.1 ± 0.3 µM | > 100 µM |
| CN1C[C@H](c2ccccc2Cl)[C@]2(NC(=S)N(c3ccccc3)C2=O)[C@]12C(=O)Nc1ccccc12 (racemic) [Compound 9] | 21.7 ± 5.8 µM | > 100 µM | > 100 µM | 23.1 ± 6.6 µM |

| Compound | IC50 (HCT^wt cells) | IC50 (PC3 cells) | IC50 (LNCaP cells) | IC50 (HCT^−/− cells) |
| --- | --- | --- | --- | --- |
| CC(c1ccccc1)N1C(=O)C2(NC1=S)C(c1ccc(Cl)cc1)CN(C)C21C(=O)Nc2ccc(Cl)cc21 (mixture of isomers) [Compound 66] | > 100 µM | > 100 µM | > 100 µM | > 100 µM |
| CN1C[C@H](c2cccc(Cl)c2)[C@]2(NC(=S)N(c3ccc(F)c(Cl)c3)C2=O)[C@]12C(=O)Nc1ccc(Cl)cc12 (racemic) [Compound 43] | 9.3 ± 4.6 µM | 5.7 ± 2.6 µM | 3.2 ± 1.6 µM | 9.5 ± 4.9 µM |
| CN1C[C@H](c2ccccc2Cl)[C@]2(NC(=S)N(c3ccccc3)C2=O)[C@]12C(=O)Nc1ccc(Cl)cc12 (racemic) [Compound 11] | > 100 µM | > 100 µM | > 100 µM | > 100 µM |
| CN1CC(c2ccc(Cl)cc2)C2(NC(=S)N(c3ccc(O)cc3)C2=O)C12C(=O)Nc1ccccc12 (stereo not shown) [Compound 50, 1-(4-hydroxyphenyl)-4’-(4-chlorophenyl)-1’-methyl-2-thiooxodispiro[imidazolidine-4,3’-pyrrolidine-2’,3”-indoline]-2”,5-dione] | 6.9 ± 3.1 µM | 4.65 ± 2.3 µM | 18 ± 4.7 µM | > 100 µM |
| CN1C[C@H](c2ccncc2)[C@]2(NC(=S)N(c3ccccc3)C2=O)[C@]12C(=O)Nc1ccc(Cl)cc12 (racemic) [Compound 21] | 50.5 ± 10.2 µM | > 100 µM | > 100 µM | > 100 µM |
| CN1C[C@H](c2ccc(Cl)cc2)[C@]2(NC(=S)N(c3ccc(O)cc3)C2=O)[C@]12C(=O)Nc1ccc(Cl)cc12 (racemic) [Compound 52] | > 100 µM | > 100 µM | > 100 µM | > 100 µM |
| COc1ccc([C@H]2CN(C)[C@@]3(C(=O)Nc4ccccc43)[C@@]23NC(=S)N(c2ccc(F)c(Cl)c2)C3=O)cc1 (racemic) [Compound 41] | > 100 µM | > 100 µM | > 100 µM | > 100 µM |
| CN1C[C@H](c2ccccc2Br)[C@]2(NC(=S)N(c3ccccc3)C2=O)[C@]12C(=O)Nc1ccccc12 (racemic) [Compound 8] | > 100 µM | > 100 µM | > 100 µM | > 100 µM |
| CN1C[C@H](c2ccc(Cl)cc2)[C@]2(NC(=S)N(c3ccccc3)C2=O)[C@]12C(=O)Nc1ccc(Cl)cc12 (racemic) [Compound 12] | > 100 µM | > 100 µM | > 100 µM | > 100 µM |
| CC(c1ccccc1)N1C(=O)C2(NC1=S)C(c1ccc(Cl)cc1)CN(C)C21C(=O)Nc2ccc(Br)cc21 (mixture of isomers) [Compound 65] | > 100 µM | > 100 µM | > 100 µM | > 100 µM |
| CN1CC(c2ccc(Cl)cc2)C2(NC(=S)N(c3ccc(O)cc3)C2=O)C12C(=O)Nc1ccc(Br)cc12 (stereo not shown) [Compound 51, 1-(4-hydroxyphenyl)-4’-(4-chlorophenyl)-1’-methyl-5’’’-bromo-2-thiooxodispiro[imidazolidine-4,3’-pyrrolidine-2’,3”-indoline]-2”,5-dione] | > 100 µM | > 100 µM | > 100 µM | > 100 µM |
| CN1C[C@H](c2ccc(F)cc2)[C@]2(NC(=S)N(c3ccc(Cl)cc3)C2=O)[C@]12C(=O)Nc1ccccc12 (racemic) [Compound 38] | > 100 µM | > 100 µM | > 100 µM | > 100 µM |
| CN1C[C@H](c2ccccc2Cl)[C@]2(NC(=S)N(c3ccc(O)cc3)C2=O)[C@]12C(=O)Nc1ccc(Cl)cc12 (racemic) [Compound 55] | > 100 µM | 15.1 ± 1.2 µM | 7 ± 1 µM | > 100 µM |
| CN1C[C@H](c2ccccc2)[C@]2(NC(=S)N(c3ccccc3)C2=O)[C@]12C(=O)Nc1ccc(Br)cc12 (racemic) [Compound 5] | 10.5 ± 2.3 µM | 4.6 ± 2.5 µM | 2.2 ± 0.8 µM | 12.5 ± 3.2 µM |
| CC(c1ccccc1)N1C(=O)C2(NC1=S)C(c1ccccc1Cl)CN(C)C21C(=O)Nc2ccc(Br)cc21 (mixture of isomers) [Compound 62] | > 100 µM | > 100 µM | > 100 µM | > 100 µM |
| COc1ccc(N2C(=O)[C@]3(NC2=S)[C@@H](c2cccc(Cl)c2)CN(C)[C@@]32C(=O)Nc3ccccc32)cc1 (racemic) [Compound 32] | > 100 µM | > 100 µM | > 100 µM | > 100 µM |
| CN1C[C@H](c2ccc(Cl)cc2)[C@]2(NC(=S)N(c3ccc(F)c(Cl)c3)C2=O)[C@]12C(=O)Nc1ccc(Cl)cc12 (racemic) [Compound 42] | > 100 µM | > 100 µM | > 100 µM | > 100 µM |
